Test results from patent publication US12156915B2, “Selected artemisinin dimers for the treatment of lashmaniasis” (priority 2020, dated 2024).
“And” between values parts separate entries of the source, which are not always exact repeats. Equal entries are not always repeated. “Also recorded” adds a separate entry of the source.

Assays:
[1] = THP1 cytotoxicity assay (alamar blue); type: cell-based; settings: human, PMA-differentiated THP1 cells, 48 hrs + 24 hrs alamar blue
Experimental: THP-1 cells (human monocytic leukemia cells) were made available by the American Type Culture Collection (ATCC) and were maintained in RPMI 1640 media (Life-Technologies) supplemented with Sodium Pyruvate, Glutamine, HEPES (Life-81 Technologies) and 10% heat-inactivated FBS (Sigma). The culture was maintained at 37° C. in 5% CO2 incubator. THP1 cells Subculture was done every 3-4 days. Promastigote forms of Leishmania donovani (S1 strain) was grown in RPMI 1640 medium at pH 7.4 supplemented with 10% fetal bovine serum. The culture was maintained at 26° C. by incubator. Subculture was done every 3-4 days.
A 3-day old culture of THP1 cells in the exponential phase was diluted with RPMI medium to 2.5×10^5 cells/ml. PMA was added to final a concentration of 25 ng/ml. PMA treated culture was dispensed in clear flat bottom culture plates and incubated overnight at 37° C. in a 5% CO2 incubator. The plates with differentiated THP1 cells were washed with serum-free medium with the help of Molecular device AquaMax 4000 and the serum-free medium was replaced by a medium with diluted test samples. The plates were placed again in a CO2 incubator at […] for 48 hrs. […] Standard fluorescence was measured on a Fluostar Galaxy fluorometer (BMG LabTechnologies) at 544 nm ex, 590 nm em. […]

[2] = system: intracellular amastigote form of L. donovani parasite in differentiated THP1 cells; experiment: Parasite rescue and transformation assay (macrophage internalized amastigotes); type: cell-based, Leishmania donovani; settings: for selectivity index (SI): IC50 of cytotoxicity divided by IC50 in parasite rescue and transformation assay; for IC50: Leishmania donovani, THP-1, parasite rescue and transformation assay, read-out: IC50 anti-leishmanial activity, intracellular amastigote
Experimental: This assay is based on the previously published protocol by Jain et al. (35). A 3-day old culture of THP1 cells in the exponential phase was diluted with RPMI medium to 2.5×10^5 cells/ml. PMA was added to final a concentration of 25 ng/ml. PMA treated culture was dispensed in clear flat bottom culture plates and incubated overnight at 37° C. in a 5% CO2 incubator. The plates with differentiated THP1 Cells were washed with serum-free medium with the help of Molecular device AquaMax 4000. A 5-6-day old L. donovani promastigote culture diluted to 5×10^6 cells/ml was added over differentiated THP1 cells. The Macrophage cells to parasite ratio for infection was 1:10. The plates were incubated for 24 hrs. After 24 hrs., the plates were again washed with the help of AquaMax 4000 and the serum-free medium was replaced by a medium with diluted test samples. The plates were placed again in a CO2 incubator at […] for 48 hrs. After 48 hrs., the macrophage amastigote plates were washed and treated with 0.05% SDS for 30 secs., and diluted SDS medium was immediately replaced with complete RPMI medium. Plates were incubated for amastigote to promastigote transformation, and promastigote growth at […] for 48 hrs. After 48 hrs., 5 μl of alamar blue was added to each well of macrophage amastigote assay plates, and the plates were incubated further for 24 hrs. Standard fluorescence was measured on a Fluostar Galaxy fluorometer (BMG LabTechnologies) at 544 nm ex, 590 nm em. Xlfit 5.3.1 software has generated all dose response curves.

[3] = system: L. donovani promastigotes; experiment: Annexin V binding apoptosis assay (Annexin V/Propidium Iodide flow cytometry); type: cell-based, Leishmania donovani; settings: for apoptotic effect on promastigotes: dimers 14 μM, artemisinin 35 μM, 24 to 72 hrs
Description: Apoptosis, also known as programmed cell death, is a physiological process of removal of unwanted cells (37). In one of the earlier events, the process of apoptosis includes translocation of membrane phosphatidylserine from the inner side of the cell membrane to the surface (38). Annexin V is a Ca^++ dependent phospholipid-binding protein which has a high affinity for phosphatidylserine (39). So FITC-labeled Annexin V can be used for the analysis of exposed PS using a flow cytometer (40). Apoptosis analysis was done by flow cytometry using Annexin V/Propidium Iodide staining method. […] 1×10^7 promastigote cells/ml were treated with artemisinin (35 μM), dimer Morpholine (14 μM) and dimer GABA (14 μM). Aliquots were withdrawn at different time intervals and stained with FITC-Annexin V and Propidium Iodide. The cell was analyzed by flow-cytometry. […] 50,000 in a gated event were run in a FL2 (Propidium Iodide)/FL1 (Annexin FITC) and analyzed by quadrangle plot.

[4] = system: promastigote form of L. donovani parasite; experiment: Leishmania donovani promastigote assay (alamar blue); type: cell-based; settings: read-out: IC50 anti-leishmanial activity, promastigote
Experimental: THP-1 cells (human monocytic leukemia cells) were made available by the American Type Culture Collection (ATCC) and were maintained in RPMI 1640 media (Life-Technologies) supplemented with Sodium Pyruvate, Glutamine, HEPES (Life-81 Technologies) and 10% heat-inactivated FBS (Sigma). The culture was maintained at 37° C. in 5% CO2 incubator. THP1 cells Subculture was done every 3-4 days. Promastigote forms of Leishmania donovani (S1 strain) was grown in RPMI 1640 medium at pH 7.4 supplemented with 10% fetal bovine serum. The culture was maintained at 26° C. by incubator. Subculture was done every 3-4 days. The promastigote assay was based on alamar blue base growth analysis (33). A 3-4 day old promastigote culture in the exponential phase was diluted with RPMI 1640 medium, to 1×10^6 cells/ml. Artemisinin dimer samples were diluted to stock concentration of 2 mg/ml. Artemisinin dimer samples were dispensed in culture plates and diluted with a promastigote culture so the final highest concentration of samples was 10 μg/ml, and highest concentration of parent artemisinin was 40 μg/ml. The culture with the highest concentration of each artemisinin dimer was serially diluted in 1:5 ratio to 6 different concentrations. All artemisinin dimers were tested in triplicate. […] Standard fluorescence was measured on a Fluostar Galaxy fluorometer (BMG LabTechnologies) at 544 nm ex, 590 nm em. […]

Structure (SMILES)	IC50 at 48 h [1] [µM]	selectivity index (SI) [2]	IC50 [2] [µM]	apoptotic effect on promastigotes [3]	further results
C[C@H]1[C@@H](OC/C(CO[C@H]2O[C@@H]3O[C@]4(C)CC[C@H]5[C@H](C)CC[C@@H]([C@H]2C)[C@@]35OO4)=N\O)O[C@@H]2OC3(C)CC[C@H]4[C@H](C)CC[C@@H]1[C@@]24OO3 [dimer oxime]	11.4	–	–	–	–
C[C@H]1[C@@H](OCC(CO[C@H]2O[C@@H]3O[C@@]4(C)CC[C@H]5[C@H](C)CC[C@@H]([C@H]2C)[C@@]35OO4)N2CCOCC2)OC2O[C@@]3(C)CC[C@H]4[C@H](C)CC[C@@H]1[C@@]24OO3 (stereo partly drawn) [Dimer Morpholine]	–	> 2056 and > 2052	0.007	time-dependent apoptotic effect	population in UR area of FL2/FL1 dot plot, 48 hrs compared to 24 hrs ([3]; 14 μM): significantly (P<0.0001) higher population; population in UR area of FL2/FL1 dot plot, 72 hrs compared to 24 hrs ([3]; 14 μM): significantly (P<0.0001) higher population; population in Upper Right (UR, late apoptosis) area of FL2 (PI)/FL1 (Annexin FITC) dot plot compared to control group ([3]; 14 μM, 24 hrs): significantly (P<0.0001) higher population; population in UR area of FL2/FL1 dot plot compared to control group ([3]; 14 μM, 48 hrs): significantly (P<0.0001) higher population; population in UR area of FL2/FL1 dot plot compared to control group ([3]; 14 μM, 72 hrs): significantly (P<0.0001) higher population
N=C(N)c1ccc(OCCCCCOc2ccc(C(=N)N)cc2)cc1 [pentamidine]	–	63	0.545	–	–
C[C@H]1[C@@H](OCC(CO[C@H]2O[C@@H]3O[C@@]4(C)CC[C@H]5[C@H](C)CC[C@@H]([C@H]2C)[C@@]35OO4)NCCc2c[nH]c3ccccc23)OC2O[C@@]3(C)CC[C@H]4[C@H](C)CC[C@@H]1[C@@]24OO3 (stereo partly drawn) [dimer tryptamine]	7.39	–	–	–	–
C[C@@H]1[C@H](O)[C@@H](C)/C=C/C=C/C=C/C=C/C=C/C=C/C=C/[C@H](O[C@@H]2O[C@H](C)[C@@H](O)[C@H](N)[C@@H]2O)C[C@@H]2O[C@](O)(C[C@@H](O)C[C@@H](O)[C@H](O)CC[C@@H](O)C[C@@H](O)CC(=O)O[C@H]1C)C[C@H](O)[C@H]2C(=O)O [amphotericin, amphotericin B]	–	201	0.062	–	–
C[C@@H]1CC[C@H]2[C@@H](C)C(=O)O[C@@H]3O[C@@]4(C)CC[C@@H]1[C@]32OO4 [artemisinin]	–	–	> 35.4	does not have; also recorded: does not have leishmanicidal or apoptotic effect	IC50 [4]: 99.2 µM; anti-leishmanial (leishmanicidal) effect ([3]; artemisinin at 35 μM): does not have an anti-leishmanial effect; also recorded: does not have leishmanicidal or apoptotic effect
